# Data as given in the METLIN SMRT retention time set (Domingo-Almenara et al. 2019).
# Assay: gradient 5% acetonitrile 3 min, to 50% in 2 min, to 85% in 15 min, held 3 min, 100 µL/min
# Conditions: column: Zorbax Extend-C18 2.1 x 50 mm; eluents: water / acetonitrile, 0.1% formic acid
# How it was run: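 Retention times come from adduct peaks that were picked computationally and then checked by hand. The standards, pure and pooled in mixtures of ~100 molecules, were run on a Zorbax Extend-C18 column (2.1 × 50 mm, 1.8 μm) at 100 μL/min with water and acetonitrile, each with 0.1% formic acid. Detection was by quadrupole time-of-flight mass spectrometry in positive and negative ionization mode, with a dead volume of 40 μL and a dwell volume of 900 μL.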
row,RP-LC retention time [s],SMILES
1,718,O=C(Nc1nnc(-c2ccsc2)o1)C1CC(=O)N(c2ccc(Cl)cc2)C1 (configuration not stated)
2,714,O=C(NC1CCN(c2cc(-c3ccc(F)cc3)[nH]n2)C1)c1ccccc1F (configuration not stated)
3,1040,CCc1nc(-c2csc(S(=O)(=O)N3CCCC(C(=O)Nc4cccc(Cl)c4)C3)c2)no1 (configuration not stated)
4,1040,Cc1ccc(-c2noc(C3CCCN3C(=O)C3CC(=O)N(c4cccc(Cl)c4)C3)n2)cc1 (configuration not stated)
5,1010,COc1ccc(-c2csc(NC(=O)CS(=O)(=O)c3ccc(Cl)cc3)n2)cc1
6,1040,O=C1N(c2ccc(F)cc2)c2ncccc2S(=O)(=O)N1Cc1ccccc1F
7,1010,CC(C)n1c(=O)sc2cc(S(=O)(=O)N3CCC(C(=O)Nc4cccc(F)c4)CC3)ccc21
8,1110,O=C(Nc1cccc(Cl)c1)C1CCCN(c2nc3ccsc3c(=O)n2Cc2ccc(F)cc2)C1 (configuration not stated)
9,947,Cc1nc(-c2cn(C(C)C)c3ncccc23)sc1C(=O)Nc1ccc(F)cc1
10,814,COc1ccc(C(=O)Nc2nc(-c3ccc4c(c3)NC(=O)CO4)c(C)s2)cc1OC
11,627,COc1ccc(NC2CC(=O)N(c3ccccc3Cl)C2=O)cc1 (configuration not stated)
12,1250,Cc1ccc(-c2csc(Cc3nc(-c4ccccc4)no3)n2)cc1
13,1270,Cc1cccc(-c2noc(Cn3ncn4nc(-c5cc(C)ccc5C)cc4c3=O)n2)c1
14,1020,O=C(NCCc1c[nH]c2ccccc12)c1nn(-c2ccc(Cl)cc2)nc1CO
15,652,O=C(c1cccc(Nc2c(-c3ccccc3)nc3cnccn23)c1)N1CCOCC1
16,751,CC(=O)Nc1ccc(C2(C(=O)NCc3cccc(F)c3)CCC2)cc1
17,1130,Cc1cccc(-n2c(=O)c3sccc3n(Cc3nc(-c4cccc(Br)c4)no3)c2=O)c1

row,RP-LC retention time [s],SMILES
1,977,O=C(Nc1nnc(SCc2nnc(-c3ccccc3)o2)s1)c1cccc(Cl)c1
2,748,COc1ccc(-c2nc(C(=O)N3CCN(C)CC3)sc2-c2ccc(OC)cc2)cc1
3,945,Fc1ccc(Br)cc1-c1nc2ccc(Cl)cn2c1Nc1ccc2c(c1)OCO2
4,654,Cc1ccc(CNC(=O)c2ccc(-c3cc(N4CCCC4)ncn3)cc2)o1
5,706,O=C(NCCCc1ccccc1)c1ccc2c(c1)N(CC(=O)N1CCCC1)C(=O)CO2
6,848,Cc1csc(-c2ccc(CNC(=O)Cc3cccc(F)c3)cc2)n1
7,659,COc1ccccc1C(CNC(=O)c1cc(=O)c2cc(C)cc(C)c2o1)N(C)C (configuration not stated)
8,661,CCc1nc2c(c(=O)n1CC(=O)NCc1cccc(C)c1)CN(Cc1ccccc1)CC2
9,1210,O=C1CC(c2noc(-c3cccc(OC(F)(F)F)c3)n2)CN1c1ccc(Cl)cc1 (configuration not stated)
10,1250,Cc1ccc(-c2cc3c(=O)n(Cc4nc(-c5ccccc5Br)no4)ncn3n2)c(C)c1
11,903,CCc1noc(NC(C)=O)c1-c1ccc(C)c(S(=O)(=O)Nc2ccc(Br)cc2F)c1
12,1190,CC(C)Oc1ccc(-c2noc(CN3C(=O)COc4cc(Cl)ccc43)n2)cc1
13,772,CCc1ccc(-c2cc(C(=O)N3CCN(Cc4noc5ccccc45)CC3)[nH]n2)cc1
14,972,CCOc1ccc(N2CC(c3nc(-c4ccc(OC)cc4)no3)CC2=O)cc1 (configuration not stated)
15,1020,CCC(C(=O)NCc1ccc2c(c1)OCO2)n1ccc2cc(S(=O)(=O)N3CCCCC3)ccc21 (configuration not stated)
16,893,CCc1ccc(NC(=O)CCc2c(C)n(C)c3nc(-c4ccccc4)nn3c2=O)cc1

# Second part, the molecule before the results:
row,SMILES,RP-LC retention time [s]
1,O=C(NCc1cccs1)c1nnc(-c2ccc(S(=O)(=O)N3CCCCC3)cc2)o1,939
2,CCC(C)N(CC(=O)N1CCc2sccc2C1COc1ccc(F)cc1)C(=O)COC (configuration not stated),906
3,O=C(Cc1ccsc1)NCCn1c(=O)n(Cc2ccccc2)c2cccnc21,772
4,COc1cccc(N2N=NC3C(=O)N(c4ccccc4)C(=O)C32)c1 (configuration not stated),922
5,CCOC(=O)CSc1nnc(NC(=O)C2CC(=O)N(c3ccc(F)cc3)C2)s1 (configuration not stated),712
6,Cc1cnc(-c2ccccc2)n1C1CN(S(=O)(=O)c2cccs2)C1,653
7,O=C1COc2cc(S(=O)(=O)N3CCCC3C(=O)NC3CCCCCCC3)c(Cl)cc2N1 (configuration not stated),864
8,O=C(c1ccccn1)N1CCN(C(=O)c2nnn3c2COC(c2ccccc2)C3)CC1 (configuration not stated),717
9,Cc1nc(-c2csc(S(=O)(=O)NC3CCCCCC3)c2)sc1C,1150
10,O=C(C1CCN(S(=O)(=O)c2ccc3[nH]c(=O)ccc3c2)CC1)N1CCOCC1,613
11,CCC(C)(C)C(=O)N1CCCC(c2nc(CCNC(=O)C3CC3)cs2)C1 (configuration not stated),767
12,CCOc1cc(C(=O)N2CCCC2c2nc(-c3ccc(OC)cc3)no2)cc(OCC)c1OCC (configuration not stated),1080
13,Cc1ccccc1CNC(=O)Cn1cnc2onc(C)c2c1=O,738
14,CCOCCCNCc1ccc(-c2ccccc2)o1,649
15,COc1ccc(OC)c(NS(=O)(=O)c2c(C)sc(C)c2-c2cc(C(F)(F)F)on2)c1,1150
16,CCOc1ccccc1N1C(=O)CC(N2CCC(C(N)=O)CC2)C1=O (configuration not stated),589
17,CC(C)c1csc(-c2csc(S(=O)(=O)N3CCN(c4ccccc4F)CC3)c2)n1,1330
18,O=C(NCCc1csc(C2CCN(C(=O)C3CC3)CC2)n1)C1CC1,640
19,COc1ccc(OCc2nn3c(-c4ccoc4C)nnc3s2)cc1,900
20,CCOC(=O)c1cc(S(=O)(=O)N2CCCC2C(=O)Nc2ccc(Br)c(C)c2)cn1C (configuration not stated),1080
21,Cc1ccc(-c2nnc(CC(=O)NC3CCCCC3)o2)cc1,830
22,Cc1nnc2c(=O)n(CC(=O)NCc3cccc(F)c3)c3cccnc3n12,656
23,Cc1cccc(S(=O)(=O)N2CCc3nc(-c4ccccc4)ncc3C2)c1,1070
24,O=C(Cc1ccsc1)N1CCN(c2ncnc3c2CCC3)CC1,594
25,O=C(Cn1ncc2c(c1=O)N(CC1CC1)C(=O)CS2)N1CCN(c2ccccc2)CC1,788
26,CC1CN=C2C=C(N3CCN(C(=O)Nc4ccccc4Cl)CC3)N=CN21 (configuration not stated),618
27,CCCc1cc(N2CCN(C(=O)c3nccc4ccccc34)CC2)nc2nncn12,619

row,SMILES,RP-LC retention time [s]
1,C[C@@H]1O[C@@H](OC2O[C@@H](COc3cc(O)c4c(=O)cc(-c5ccc(O)cc5)oc4c3)[C@@H](O)[C@@H](O)[C@@H]2O)[C@H](O)[C@H](O)[C@H]1O (some centres not stated),671
2,CCCNC(=O)c1cn(-c2ncccc2-c2nc(C(C)(C)C)no2)cn1,768
3,CCOc1ccc(-c2noc(Cn3c(=O)n(C(C)CC)c(=O)c4ccccc43)n2)cc1OC (configuration not stated),1140
4,CC1=NS(=O)(=O)N(C)C=C1C(=O)OCc1ccc(C#N)cc1,842
5,COc1ccc(S(=O)(=O)N(CC(=O)NO)CC(C)C)cc1,615
6,Cn1cc(CCN2CCC(C(=O)NCc3ccccc3)CC2)c2cccnc21,588
7,CCc1onc(C)c1C1CCCN1C(=O)c1c(Br)cnn1C (configuration not stated),728
8,Cc1cc(C)cc(NS(=O)(=O)c2cc(-c3[nH]ncc3C(=O)N3CCCC3)oc2C)c1,746
9,O=C(NCC(=O)N1CCc2ccccc21)Nc1ccccc1C(F)(F)F,890
10,CCOCCCNC(=O)C1c2ccccc2C(=O)N(C2CCCC2)C1c1cccs1 (configuration not stated),882
11,N#Cc1ccc(-c2nc(-c3nn(CCN4CCOCC4)c4ccccc34)no2)cc1,692
12,CC(C)(C)C(=O)N1CCC(F)(c2nc(-c3ccncc3)no2)CC1,802
13,CC1(C(=O)NCc2ccc(F)cc2)CCN(S(=O)(=O)c2ccc(C3CCCCC3)cc2)CC1,1210
14,CCCNS(=O)(=O)c1cc(-c2cc(C(F)(F)F)on2)sc1C,1090
15,Cc1nc2scc(CC(=O)O)n2c(=O)c1C,592
16,COc1ccc(N2CCN(C(=O)C3CCN(c4nc(NC(C)=O)ns4)CC3)CC2)cc1,618
17,O=C(c1cncc(Br)c1)N1CCC(OCC2CC2)C1 (configuration not stated),730
18,CCOc1ccc(N2CC(NC(=O)Nc3ccc(OC(F)F)cc3)CC2=O)cc1 (configuration not stated),754
19,CC1CCC2(CC1)NC(=O)N(CC(=O)NCCc1ccc(Cl)cc1)C2=O (configuration not stated),863
20,O=C(Cc1ccccc1Cl)N1CCc2nc[nH]c2C1,584
21,Cc1ccccc1NC(=O)Cn1ccc2sccc2c1=O,701
22,Cc1sc(-c2cc(C(F)(F)F)[nH]n2)cc1S(=O)(=O)N1CCN(c2ccccc2)CC1,1110
23,COc1cc(Cl)ccc1C(=O)Nc1cc(S(=O)(=O)N2CCSCC2)sc1C,1090
24,Cc1ccc(NC(=O)C2CCN(S(=O)(=O)c3cc(C(=O)N4CCC(C)CC4)n(C)c3)CC2)nc1,705
25,O=C(C1CCCN(c2ncc(-c3ccc(F)cc3)cn2)C1)N1CCCC1 (configuration not stated),863
26,Cn1nc(C(=O)N2CCCC2)c2c1CCN(C(=O)Nc1ccccc1)C2,704
27,O=C(NC1CCCCC1)C(c1ccc(Cl)cc1)N1CCN(C(=O)c2ccco2)CC1 (configuration not stated),773
